This is an account of results in patent publication US6380204B1, “Atropisomers of 3-heteroaryl-4(3H)-quinazolinones for the treatment of neurodegenerative and CNS-trauma related conditions” (Pfizer INC, priority 1997, dated 2002).

One data set deals with global ischemia. To be noted: noncompetitive AMPA receptor antagonist; LaPeillet et al.; cited from earlier work.
The subject of data set [1] is global and focal ischemic damage. To be noted: competitive AMPA receptor antagonist; Sheardown et al., Buchan et al., LePeillet et al.; cited from earlier work.

For orientation: melting point means the temperature of the solid-liquid transition. The compound `Cc1nc(CCc2nc3ccc(F)cc3c(=O)n2-c2cccnc2C)cs1` had a melting point of 151 to 153 °C.
The compound `CS(=O)(=O)O.Cc1nc(C=Cc2nc3ccc(F)cc3c(=O)n2-c2cccnc2C)cs1` (single isomer, unassigned) came in with a melting point of 145 to 146 °C.
Turning to `CC1=NN=C(c2ccc(N)cc2)c2cc3c(cc2C1)OCO3` [GKYI 52466], the “neuroprotection in rat global ischemia models” value in the data set on global ischemia is “effective neuroprotective agent”.
For the compound `NS(=O)(=O)c1cccc2c1c([N+](=O)[O-])cc1nc(O)c(O)nc12` [NBQX, 2,3-dihydroxy-6-nitro-7-sulfamoylbenzo[f-]quinoxaline], in data set [1], the “prevention of global and focal ischemic damage” value is “effective in preventing global and focal ischemic damage”.
